Tests used:
Jurkat = test: MTS proliferation assay; format: cell-based, human; conditions: 72 h
In short: (§1)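 Viability read-out is MTS absorbance at 492 nm after 3 h reagent incubation. It follows 72 h culture-condition treatment at four final concentrations (10, 3, 1, 0.3 μM), compounds delivered in medium holding max 5% DMSO.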

HeLa = test: MTS proliferation assay; format: cell-based, human; conditions: 72 h
In short: as §1

[1] = Hoechst 33342 nuclear staining; format: cell-based; conditions: for Hoechst 33342 nuclear staining score, H460: H460 cells; for Hoechst 33342 nuclear staining score, HeLa: HeLa cells; for Hoechst 33342 nuclear staining score, Jily: Jily cells; for Hoechst 33342 nuclear staining score, Jurkat: Jurkat cells; for Hoechst 33342 nuclear staining score, MRC5: MRC5 cells; as to Hoechst 33342 nuclear staining score, PBLs: key: 0: no activity; 1: weak activity comprising less than 50% of the cells; 2: strong activity comprising more than 50% of the cells;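 as to all read-outs here: apoptotic nuclei scored 0 none 1 weak under 50% of cells 2 strong over 50% of cells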
In short: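 Cells were plated in 96 well tissue culture plates in 80 μl complete medium, with 3-5*10^3 cells per well for adherent lines and 8-10*10^3 for suspension lines. Adherent cells spread for 24 h before treatment, while suspension cells were treated right after seeding. Compounds were added in 20 μl complete medium containing max 5% DMSO.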

Jily = test: MTS proliferation assay; format: cell-based; conditions: 72 h
In short: as §1

MRC5 = test: MTS proliferation assay; format: cell-based; conditions: MRC5, 72 h
In short: as §1

COc1ccc(S(=O)(=O)n2cc(CNc3ccc(N4CCOCC4)cc3)cc2-c2cc(OC)c(OC)c(OC)c2)cc1 [Example 94, 1-p-Methoxyphenylsulfonyl-4-p-morpholinophenylaminomethyl-2-(3,4,5-trimethoxyphenyl)-pyrrole]
IC50 (Jurkat; Homo sapiens): < 200 nM | IC50 (HeLa; Homo sapiens): < 200 nM | Hoechst 33342 nuclear staining score, H460 ([1]; conc 0.1): 0 | Hoechst 33342 nuclear staining score, H460 ([1]; conc 0.3): 2 (strong activity comprising more than 50% of the cells) | Hoechst 33342 nuclear staining score, H460 ([1]; conc 1): 2 (strong activity comprising more than 50% of the cells) | Hoechst 33342 nuclear staining score, H460 ([1]; conc 3): 2 (strong activity comprising more than 50% of the cells) | Hoechst 33342 nuclear staining score, HeLa ([1]; conc 0.1): 0 | Hoechst 33342 nuclear staining score, HeLa ([1]; conc 0.3): 2 (strong activity comprising more than 50% of the cells) | Hoechst 33342 nuclear staining score, HeLa ([1]; conc 1): 2 (strong activity comprising more than 50% of the cells) | Hoechst 33342 nuclear staining score, HeLa ([1]; conc 3): 2 (strong activity comprising more than 50% of the cells) | Hoechst 33342 nuclear staining score, Jily ([1]; conc 0.1): 0 | Hoechst 33342 nuclear staining score, Jily ([1]; conc 0.3): 2 (strong activity comprising more than 50% of the cells) | Hoechst 33342 nuclear staining score, Jily ([1]; conc 1): 2 (strong activity comprising more than 50% of the cells) | Hoechst 33342 nuclear staining score, Jily ([1]; conc 3): 2 (strong activity comprising more than 50% of the cells) | Hoechst 33342 nuclear staining score, Jurkat ([1]; conc 0.1): 0 | Hoechst 33342 nuclear staining score, Jurkat ([1]; conc 0.3): 2 (strong activity comprising more than 50% of the cells) | Hoechst 33342 nuclear staining score, Jurkat ([1]; conc 1): 2 (strong activity comprising more than 50% of the cells) | Hoechst 33342 nuclear staining score, Jurkat ([1]; conc 3): 2 (strong activity comprising more than 50% of the cells) | Hoechst 33342 nuclear staining score, MRC5 ([1]; conc 0.1): 0 | Hoechst 33342 nuclear staining score, MRC5 ([1]; conc 0.3): 0 | Hoechst 33342 nuclear staining score, MRC5 ([1]; conc 1): 0 | Hoechst 33342 nuclear staining score, MRC5 ([1]; conc 3): 2 (strong activity comprising more than 50% of the cells) | Hoechst 33342 nuclear staining score, PBLs ([1]; conc 0.1): 0 | Hoechst 33342 nuclear staining score, PBLs ([1]; conc 0.3): 0 | Hoechst 33342 nuclear staining score, PBLs ([1]; conc 1): 0 | Hoechst 33342 nuclear staining score, PBLs ([1]; conc 3): 0 | IC50 (Jily): < 200 nM | IC50 (MRC5; Homo sapiens): < 200 nM

COc1cc(-c2cc(-c3cncc(C(=O)NCCN4CCOCC4)c3)cn2S(=O)(=O)c2ccc(C)cc2)cc(OC)c1OC.Cl [Example 64]
IC50 (Jurkat): < 1000 nM | IC50 (HeLa): < 1000 nM | Hoechst 33342 nuclear staining score, H460 ([1]; conc 0.1): 0 | Hoechst 33342 nuclear staining score, H460 ([1]; conc 0.3): 0 | Hoechst 33342 nuclear staining score, H460 ([1]; conc 1): 2 (strong activity comprising more than 50% of the cells) | Hoechst 33342 nuclear staining score, H460 ([1]; conc 3): 2 (strong activity comprising more than 50% of the cells) | Hoechst 33342 nuclear staining score, HeLa ([1]; conc 0.1): 0 | Hoechst 33342 nuclear staining score, HeLa ([1]; conc 0.3): 0 | Hoechst 33342 nuclear staining score, HeLa ([1]; conc 1): 2 (strong activity comprising more than 50% of the cells) | Hoechst 33342 nuclear staining score, HeLa ([1]; conc 3): 2 (strong activity comprising more than 50% of the cells) | Hoechst 33342 nuclear staining score, Jily ([1]; conc 0.1): 0 | Hoechst 33342 nuclear staining score, Jily ([1]; conc 0.3): 0 | Hoechst 33342 nuclear staining score, Jily ([1]; conc 1): 2 (strong activity comprising more than 50% of the cells) | Hoechst 33342 nuclear staining score, Jily ([1]; conc 3): 2 (strong activity comprising more than 50% of the cells) | Hoechst 33342 nuclear staining score, Jurkat ([1]; conc 0.1): 0 | Hoechst 33342 nuclear staining score, Jurkat ([1]; conc 0.3): 0 | Hoechst 33342 nuclear staining score, Jurkat ([1]; conc 1): 2 (strong activity comprising more than 50% of the cells) | Hoechst 33342 nuclear staining score, Jurkat ([1]; conc 3): 2 (strong activity comprising more than 50% of the cells) | Hoechst 33342 nuclear staining score, MRC5 ([1]; conc 0.1): 0 | Hoechst 33342 nuclear staining score, MRC5 ([1]; conc 0.3): 0 | Hoechst 33342 nuclear staining score, MRC5 ([1]; conc 1): 2 (strong activity comprising more than 50% of the cells) | Hoechst 33342 nuclear staining score, MRC5 ([1]; conc 3): 2 (strong activity comprising more than 50% of the cells) | Hoechst 33342 nuclear staining score, PBLs ([1]; conc 0.1): 0 | Hoechst 33342 nuclear staining score, PBLs ([1]; conc 0.3): 0 | Hoechst 33342 nuclear staining score, PBLs ([1]; conc 1): 0 | Hoechst 33342 nuclear staining score, PBLs ([1]; conc 3): 0 | IC50 (Jily): < 1000 nM | IC50 (MRC5): < 1000 nM

COc1cc(-c2cc(-c3ccc(S(N)(=O)=O)cc3)cn2S(=O)(=O)c2ccc(C)cc2)cc(OC)c1OC [Example 57]
IC50 (Jurkat): < 200 nM | IC50 (HeLa): < 1000 nM | Hoechst 33342 nuclear staining score, HeLa ([1]; conc 0.1): 0 | Hoechst 33342 nuclear staining score, HeLa ([1]; conc 0.3): 0 | Hoechst 33342 nuclear staining score, HeLa ([1]; conc 1): 0 | Hoechst 33342 nuclear staining score, HeLa ([1]; conc 3): 2 (strong activity comprising more than 50% of the cells) | Hoechst 33342 nuclear staining score, Jurkat ([1]; conc 0.1): 0 | Hoechst 33342 nuclear staining score, Jurkat ([1]; conc 0.3): 0 | Hoechst 33342 nuclear staining score, Jurkat ([1]; conc 1): 1 (weak activity comprising less than 50% of the cells) | Hoechst 33342 nuclear staining score, Jurkat ([1]; conc 3): 2 (strong activity comprising more than 50% of the cells) | Hoechst 33342 nuclear staining score, PBLs ([1]; conc 0.1): 0 | Hoechst 33342 nuclear staining score, PBLs ([1]; conc 0.3): 0 | Hoechst 33342 nuclear staining score, PBLs ([1]; conc 1): 0 | Hoechst 33342 nuclear staining score, PBLs ([1]; conc 3): 0 | IC50 (Jily): < 1000 nM | IC50 (MRC5): < 1000 nM

COc1cc(-c2cc(-c3cccnc3)cn2S(=O)(=O)c2ccc(C(F)(F)F)cc2)cc(OC)c1OC [Example 82]
IC50 (Jurkat): < 1000 nM | IC50 (HeLa): > 1000 nM | Hoechst 33342 nuclear staining score, H460 ([1]; conc 0.1): 0 | Hoechst 33342 nuclear staining score, H460 ([1]; conc 0.3): 0 | Hoechst 33342 nuclear staining score, H460 ([1]; conc 1): 2 (strong activity comprising more than 50% of the cells) | Hoechst 33342 nuclear staining score, H460 ([1]; conc 3): 2 (strong activity comprising more than 50% of the cells) | Hoechst 33342 nuclear staining score, HeLa ([1]; conc 0.1): 0 | Hoechst 33342 nuclear staining score, HeLa ([1]; conc 0.3): 0 | Hoechst 33342 nuclear staining score, HeLa ([1]; conc 1): 2 (strong activity comprising more than 50% of the cells) | Hoechst 33342 nuclear staining score, HeLa ([1]; conc 3): 2 (strong activity comprising more than 50% of the cells) | Hoechst 33342 nuclear staining score, Jily ([1]; conc 0.1): 0 | Hoechst 33342 nuclear staining score, Jily ([1]; conc 0.3): 0 | Hoechst 33342 nuclear staining score, Jily ([1]; conc 1): 1 (weak activity comprising less than 50% of the cells) | Hoechst 33342 nuclear staining score, Jily ([1]; conc 3): 2 (strong activity comprising more than 50% of the cells) | Hoechst 33342 nuclear staining score, Jurkat ([1]; conc 0.1): 0 | Hoechst 33342 nuclear staining score, Jurkat ([1]; conc 0.3): 0 | Hoechst 33342 nuclear staining score, Jurkat ([1]; conc 1): 2 (strong activity comprising more than 50% of the cells) | Hoechst 33342 nuclear staining score, Jurkat ([1]; conc 3): 2 (strong activity comprising more than 50% of the cells) | Hoechst 33342 nuclear staining score, MRC5 ([1]; conc 0.1): 0 | Hoechst 33342 nuclear staining score, MRC5 ([1]; conc 0.3): 0 | Hoechst 33342 nuclear staining score, MRC5 ([1]; conc 1): 1 (weak activity comprising less than 50% of the cells) | Hoechst 33342 nuclear staining score, MRC5 ([1]; conc 3): 1 (weak activity comprising less than 50% of the cells) | Hoechst 33342 nuclear staining score, PBLs ([1]; conc 0.1): 0 | Hoechst 33342 nuclear staining score, PBLs ([1]; conc 0.3): 0 | Hoechst 33342 nuclear staining score, PBLs ([1]; conc 1): 0 | Hoechst 33342 nuclear staining score, PBLs ([1]; conc 3): 0 | IC50 (Jily): > 1000 nM | IC50 (MRC5): > 1000 nM

COc1cc(-c2cc(-c3cccnc3)cn2S(=O)(=O)Cc2ccccc2)cc(OC)c1OC [Example 88]
IC50 (Jurkat): > 1000 nM | IC50 (HeLa): > 1000 nM | Hoechst 33342 nuclear staining score, H460 ([1]; conc 0.1): 0 | Hoechst 33342 nuclear staining score, H460 ([1]; conc 0.3): 0 | Hoechst 33342 nuclear staining score, H460 ([1]; conc 1): 0 | Hoechst 33342 nuclear staining score, H460 ([1]; conc 3): 0 | Hoechst 33342 nuclear staining score, HeLa ([1]; conc 0.1): 0 | Hoechst 33342 nuclear staining score, HeLa ([1]; conc 0.3): 0 | Hoechst 33342 nuclear staining score, HeLa ([1]; conc 1): 0 | Hoechst 33342 nuclear staining score, HeLa ([1]; conc 3): 0 | Hoechst 33342 nuclear staining score, Jily ([1]; conc 0.1): 0 | Hoechst 33342 nuclear staining score, Jily ([1]; conc 0.3): 0 | Hoechst 33342 nuclear staining score, Jily ([1]; conc 1): 0 | Hoechst 33342 nuclear staining score, Jily ([1]; conc 3): 0 | Hoechst 33342 nuclear staining score, Jurkat ([1]; conc 0.1): 0 | Hoechst 33342 nuclear staining score, Jurkat ([1]; conc 0.3): 0 | Hoechst 33342 nuclear staining score, Jurkat ([1]; conc 1): 0 | Hoechst 33342 nuclear staining score, Jurkat ([1]; conc 3): 0 | Hoechst 33342 nuclear staining score, MRC5 ([1]; conc 0.1): 0 | Hoechst 33342 nuclear staining score, MRC5 ([1]; conc 0.3): 0 | Hoechst 33342 nuclear staining score, MRC5 ([1]; conc 1): 0 | Hoechst 33342 nuclear staining score, MRC5 ([1]; conc 3): 0 | Hoechst 33342 nuclear staining score, PBLs ([1]; conc 0.1): 0 | Hoechst 33342 nuclear staining score, PBLs ([1]; conc 0.3): 0 | Hoechst 33342 nuclear staining score, PBLs ([1]; conc 1): 0 | Hoechst 33342 nuclear staining score, PBLs ([1]; conc 3): 0 | IC50 (Jily): > 1000 nM | IC50 (MRC5): > 1000 nM
